Test system: human pancreatic cancer cells (Panc-1)
Assay: Live cell imaging by confocal microscopy, binding/uptake to Panc-1 cells
Format: cell-based
Conditions: Panc-1, 2 h incubation, carboxyfluorescein loaded
Protocol: Carboxyfluorescein was encapsulated during the preparation of the nanoparticles. Following two hours of incubation with Panc-1 cancer cells, the cells were treated with concanavalin A (Con A) Alexa Fluor 647 conjugate. Live cell imaging analysis was performed by confocal microscopy (FIGS. 8 and 13). […] These findings support the proposed model for the co-assembly of the two peptides. As assumed, the co-assembly with Boc-FF which serves as a spacer, enabled the binding of PTR analog to the somatostatin receptor (FIG. 2b).
Panc-1 and HEK-293T cells were cultured (100,000 cells) on a cell culture dish with a glass bottom (35 mm, Greiner Bio-one). In the following day cells were incubated for two hours at 37° C. under various conditions: carboxyfluorescein (15 μM), Boc-FF (0.12 mM) and carboxyfluorescein (15 μM), Fmoc-FF-PEG2-PTR (0.3 mM) encapsulated with carboxyfluorescein (15 μM), PTR-3207-86 (0.3 mM), Fmoc-FF-PEG2-PTR (0.3 mM):Boc-FF (1:4) nanospheres encapsulated with carboxyfluorescein (15 μM). After incubation, cells were washed with PBS buffer and were treated with 10 μg/ml Concanavalin A (Con A) Alexa Fluor 647 Conjugate (Invitrogen, Carlsbad, Calif.) for 15 minutes and washed again with PBS. Live cell imaging was conducted using LSM 510 Meta confocal laser scanning microscope (Carl Zeiss, Jena, Germany).

With carboxyfluorescein the “fluorescence observed in cells (binding/uptake)” value was “No fluorescence was observed”.

— patent US11389544B2, “Formation of functionalized cancer targeting nanoparticles by supramolecular co-assembly” (RAMOT AT TEL-AVIV UNIVERSITY LTD., priority 2016, dated 2022)
